Experiments:
[1] = target: T1, human EGFR (Homo sapiens, UniProt P00533); assay: HTScan EGF Receptor Kinase assay; type: biochemical
T1 construct: human EGFR (His672-Ala1210); purchased Cell Signaling Technologies; host or cells: baculovirus expression system
Protocol: The ability of compounds to inhibit receptor kinase (EGFR) activity was assayed using HTScan™ EGF Receptor Kinase Assay Kits (Cell Signaling Technologies, Danvers, Mass.). […] The protein was purified by one-step affinity chromatography using glutathione-agarose.
Immediately transfer enzyme from −80° C. to ice. Allowed enzyme to thaw on ice. […] Returned immediately to ice. […] Incubated reaction plate at room temperature for 30 minutes. […] Added 100 μl/well primary antibody. Incubated at room temperature for 60 minutes. […] Added 100 μl/well diluted antibody. Incubated at room temperature for 30 minutes. […] Incubated at room temperature for 5 minutes.

[2] = tested on: Lung_H1975; assay: Cell proliferation assay (ATPlite); type: cell-based; conditions: 72 hours, 0.5% fetal bovine serum
Protocol: (§1) A representative number of compounds were assayed against several different cell lines using the cell proliferation assay:
(§2) Cell Proliferation Assay:
(§3) Cancer cell lines were plated at 5,000 to 10,000 per well in 96-well flatted bottomed plates with various concentration of compounds. The cells were incubated with compounds for 72 hours in the presence of 0.5% of fetal bovine serum. Growth inhibition was accessed by adenosine triphosphate (ATP) content assay using Perkin Elmer ATPlite kit. ATPlite is an ATP monitoring system based on firefly luciferase. Briefly, 25 μl of mammalian cell lysis solution was added to 50 μl of phenol red-free culture medium per well to lyse the cells and stabilize the ATP. 25 μl of substrate solution was then added to the well and subsequently the luminescence was measured.

[3] = tested on: Pancreas_Capan1; assay: Cell proliferation assay (ATPlite); type: cell-based; conditions: 72 hours, 0.5% fetal bovine serum
Protocol: as §1, §2, §3

[4] = tested on: Pancreas_BxPC3; assay: Cell proliferation assay (ATPlite); type: cell-based; conditions: 72 hours, 0.5% fetal bovine serum
Protocol: as §1, §2, §3

[5] = tested on: Lung_H1703; assay: Cell proliferation assay (ATPlite); type: cell-based; conditions: 72 hours, 0.5% fetal bovine serum
Protocol: as §1, §2, §3

[6] = tested on: Lung_H460; assay: Cell proliferation assay (ATPlite); type: cell-based; conditions: 72 hours, 0.5% fetal bovine serum
Protocol: as §1, §2, §3

[7] = tested on: Lung_H2122; assay: Cell proliferation assay (ATPlite); type: cell-based; conditions: 72 hours, 0.5% fetal bovine serum
Protocol: as §1, §2, §3

[8] = tested on: Lung_H358; assay: Cell proliferation assay (ATPlite); type: cell-based; conditions: 72 hours, 0.5% fetal bovine serum
Protocol: as §1, §2, §3

[9] = tested on: Lung_HCC827; assay: Cell proliferation assay (ATPlite); type: cell-based; conditions: 72 hours, 0.5% fetal bovine serum
Protocol: Cancer cell lines were plated at 5,000 to 10,000 per well in 96-well flatted bottomed plates with various concentration of compounds. […] Growth inhibition was accessed by adenosine triphosphate (ATP) content assay using Perkin Elmer ATPlite kit. […] Briefly, 25 μl of mammalian cell lysis solution was added to 50 μl of phenol red-free culture medium per well to lyse the cells and stabilize the ATP. 25 μl of substrate solution was then added to the well and subsequently the luminescence was measured.

[10] = tested on: Pancreas_PANC1; assay: Cell proliferation assay (ATPlite); type: cell-based; conditions: 72 hours, 0.5% fetal bovine serum
Protocol: as §1, §2, §3

[11] = tested on: Pancreas_MiaPaCa2; assay: Cell proliferation assay (ATPlite); type: cell-based; conditions: 72 hours, 0.5% fetal bovine serum
Protocol: as §1, §2, §3

[12] = tested on: Pancreas_HPAC; assay: Cell proliferation assay (ATPlite); type: cell-based; conditions: 72 hours, 0.5% fetal bovine serum
Protocol: as §1, §2, §3

[13] = Dilution study with D5W; type: physicochemical; conditions: 30% CAPTISOL solution
[14] = tested on: A549 NSCLC; assay: A549 NSCLC Xenograft model; type: in vivo, mice; conditions: compared with vehicle or control
Protocol: A representative protocol for the in vivo experiment is as followed:
1-10×10^6 human cancer cells were implanted subcutaneously to the athymic (nu/nu) mice. When the tumors reached about 100 mm^3 in volume, the mice were treated with the compound by tail vein infusion. Routinely 5 groups (8-12 mice per group) are needed for a typical efficacy study, including one negative control, one positive control, and three testing groups for 3 dose levels of the same compound. Usually a 7-7-5 (on-off-on) regimen was used for one typical study. The tumor size was measured with an electronic caliper and body weight measured with a scale twice weekly. The tumors were removed from euthanized mice at the end of the study. One half of each tumor was frozen in dry ice and stored at −80° C. for PK or Western blot analysis. The other half was fixed with formalin. The fixed tissues were processed, embedded in paraffin and sectioned for immunohistochemistry staining. Protocol for Radioisotope assay for HER2

[15] = tested on: Prostate_PC3; assay: Cell proliferation assay (ATPlite); type: cell-based; conditions: 72 hours, 0.5% fetal bovine serum
Protocol: as §1, §2, §3

[16] = tested on: T2, HDAC; assay: HDAC fluorimetric enzyme assay (HeLa nuclear extract); type: biochemical; conditions: FIG. 1
T2 construct: rows headed: HDAC IC50
Protocol: HDAC inhibitors were screened using an HDAC fluorimetric assay kit (AK-500, Biomol, Plymouth Meeting, Pa.). […] Fluorescence was measured on a WALLAC Victor 2 plate reader and reported as relative fluorescence units (RFU). Data were plotted using GraphPad Prism (v4.0a) and IC50's calculated using a sigmoidal dose response curve fitting algorithm. Each assay was setup as follows: Defrosted all kit components and kept on ice until use. […] Prepared dilutions of Trichostatin A (TSA, positive control) and tested compounds in assay buffer (5× of final concentration). Diluted Fluor de Lys™ Substrate in assay buffer to 100 uM (50 fold=2× final). Diluted Fluor de Lys™ developer concentrate 20-fold (e.g. 50 μl plus 950 μl Assay Buffer) in cold assay buffer. Second, diluted the 0.2 mM Trichostatin A 100-fold in the 1× Developer (e.g. 10 μl in 1 ml; final Trichostatin A concentration in the 1× Developer=2 μM; final concentration after addition to HDAC/Substrate reaction=1 μM). Added Assay buffer, diluted trichostatin A or test inhibitor to appropriate wells of the microtiter plate. Added diluted HeLa extract or other HDAC sample to all wells except for negative controls.

[17] = tested on: Pancreas_CFPAC; assay: Cell proliferation assay (ATPlite); type: cell-based; conditions: 72 hours, 0.5% fetal bovine serum
Protocol: as §1, §2, §3

[18] = tested on: Colon_HCT116; assay: Cell proliferation assay (ATPlite); type: cell-based; conditions: 72 hours, 0.5% fetal bovine serum
Protocol: as §1, §2, §3

T1 sequence (P00533 672-1210): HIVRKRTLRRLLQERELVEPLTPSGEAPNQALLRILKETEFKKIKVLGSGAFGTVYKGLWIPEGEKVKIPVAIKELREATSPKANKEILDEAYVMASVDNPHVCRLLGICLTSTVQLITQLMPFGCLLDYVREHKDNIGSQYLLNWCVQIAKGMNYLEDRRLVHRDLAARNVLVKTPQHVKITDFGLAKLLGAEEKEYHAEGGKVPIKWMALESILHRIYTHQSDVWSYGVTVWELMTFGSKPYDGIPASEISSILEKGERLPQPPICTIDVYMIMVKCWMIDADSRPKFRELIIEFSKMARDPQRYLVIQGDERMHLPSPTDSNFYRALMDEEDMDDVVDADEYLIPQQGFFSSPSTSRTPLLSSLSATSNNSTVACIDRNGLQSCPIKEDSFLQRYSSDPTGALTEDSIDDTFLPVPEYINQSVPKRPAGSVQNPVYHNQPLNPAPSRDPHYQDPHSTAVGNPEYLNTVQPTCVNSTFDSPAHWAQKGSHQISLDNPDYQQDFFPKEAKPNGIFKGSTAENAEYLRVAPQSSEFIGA

| Molecule | IC50 [4] | IC50 [10] | IC50 [11] | IC50 [12] | IC50 [17] | also measured |
| --- | --- | --- | --- | --- | --- | --- |
| COc1cc2ncnc(Nc3ccc(F)c(Cl)c3)c2cc1OCCOc1ccc(C(=O)NO)cc1 [Compound 92, 4-(2-(4-(3-chloro-4-fluorophenylamino)-7-methoxyquinazolin-6-yloxy)ethoxy)-N-hydroxybenzamide] |  |  |  |  |  | IC50 [1]: < 0.1 µM |
| C#Cc1cccc(Nc2ncnc3cc(OC)c(NC(=O)CCCCCCC(=O)NO)cc23)c1 [Compound 44, N^1-(4-(3-ethynylphenylamino)-7-methoxyquinazolin-6-yl)-N^8-hydroxyoctanediamide] | 1 to 10 µM |  |  |  |  | IC50 [2]: 1 to 10 µM; IC50 [3]: 1 to 10 µM; IC50 [5]: 1 to 10 µM; IC50 [6]: 1 to 10 µM; IC50 [7]: 1 to 10 µM; IC50 [8]: 1 to 10 µM; IC50 [9]: 0.1 to 1 µM |
| COc1cc2ncnc(Nc3ccc(F)c(Cl)c3)c2cc1OCCOc1ccc(/C=C/C(=O)NO)cc1 [Compound 66, (E)-3-(4-(2-(4-(3-chloro-4-fluorophenylamino)-7-methoxyquinazolin-6-yloxy)ethoxy)phenyl)-N-hydroxyacrylamide] | 1 to 10 µM | 1 to 10 µM | 1 to 10 µM | 1 to 10 µM |  |  |
| Tartaric Acid |  |  |  |  |  | Dilution with D5W [13]: >50x |
| C#Cc1cccc(Nc2ncnc3cc(OCCOC)c(OCCOC)cc23)c1 [Erlotinib, reference compound] |  |  |  |  |  | effect on tumor size / tumor growth [14]: did not significantly affect tumor size |
| COc1cc2ncnc(Nc3ccc(F)c(Cl)c3)c2cc1OCCCCCCC(=O)NO [Compound 6, 7-(4-(3-Chloro-4-fluorophenylamino)-7-methoxyquinazolin-6-yloxy)-N-hydroxyheptanamide] | 0.1 to 1 µM |  |  |  |  | IC50 [2]: 0.1 to 1 µM; IC50 [15]: 0.1 to 1 µM; IC50 [3]: 1 to 10 µM; IC50 [6]: 0.1 to 1 µM; IC50 [7]: 0.1 to 1 µM; IC50 [8]: 0.1 to 1 µM; activity in EFGR enzyme assay compared with erlotinib and SAHA ([1]; FIG. 1): more active than erlotinib and SAHA; activity in HDAC enzyme assay compared with erlotinib and SAHA [16]: more active than erlotinib and SAHA |
| O=C(CCCCCCOc1ccc2ncnc(Nc3ccc(F)c(Cl)c3)c2c1)NO [Compound 18, 7-(4-(3-chloro-4-fluorophenylamino)quinazolin-6-yloxy)-N-hydroxyheptanamide] |  | 0.1 to 1 µM | 0.1 to 1 µM | 1 to 10 µM | 0.1 to 1 µM | IC50 [18]: 0.1 to 1 µM |
| COCCOc1cc2ncnc(Nc3ccc(F)c(Cl)c3)c2cc1NC(=O)CCCCCCC(=O)NO [Compound 70, N^1-(4-(3-chloro-4-fluorophenylamino)-7-(2-methoxyethoxy)quinazolin-6-yl)-N^8-hydroxyoctanediamide] |  | 1 to 10 µM | 1 to 10 µM | > 10 µM | 1 to 10 µM | IC50 [1]: < 0.1 µM |
| COc1cc2ncnc(Nc3ccc(F)c(Cl)c3)c2cc1NC(=O)CCCCCCC(=O)NO [Compound 40, N^1-(4-(3-chloro-4-fluorophenylamino)-7-methoxyquinazolin-6-yl)-N^8-hydroxyoctanediamide] |  | 1 to 10 µM | 1 to 10 µM | 1 to 10 µM | 1 to 10 µM |  |
| COc1cc2ncnc(N[C@H](C)c3ccccc3)c2cc1OCCCCCC(=O)NO [Compound 77, (R)—N-hydroxy-6-(7-methoxy-4-(1-phenylethylamino)quinazolin-6-yloxy)-hexanamide] |  | > 10 µM | 0.1 to 1 µM | > 10 µM | 1 to 10 µM |  |
| COc1cc2ncnc(NCc3ccccc3)c2cc1OCCCCCCC(=O)NO [Compound 85, 7-(4-(Benzylamino)-7-methoxyquinazolin-6-yloxy)-N-hydroxyheptanamide] | 0.1 to 1 µM | 1 to 10 µM | 1 to 10 µM | 1 to 10 µM |  | IC50 [18]: 0.1 to 1 µM |
| COc1cc2ncnc(N[C@H](C)c3ccccc3)c2cc1OCCCCCCC(=O)NO [Compound 79, (R)—N-hydroxy-7-(7-methoxy-4-(1-phenylethylamino)quinazolin-6-yloxy)heptanamide] |  | 1 to 10 µM | 1 to 10 µM | > 10 µM | 1 to 10 µM |  |
